These results are taken from patent publication US8841290B2, “Substituted tetrahydronaphthalenes, method for the production thereof, and use thereof as drugs” (Sanofi, priority 2009, dated 2014).

One data set concerns the target T1, human MCH receptor (Homo sapiens, UniProt Q99705).
T1 construct: expressed in transfected cells
Nature of the data set: calcium mobilization assay (FLIPR), functional IC50 of MCH1R antagonists. The format is cell-based. From the text: A difference from the reference was, however, the use of the plasmid pEAK8 from EDGE Biosystems (USA) for the construction of the expression vector. The host used for the transfection was a transformed HEK cell line named “PEAK Stable Cells” (likewise from EDGE Biosystems). Functional measurements of the cellular calcium flux after addition of agonist (MCH) in the presence of ligand of the invention took place with the aid of the FLIPR apparatus from Molecular Devices (USA), using protocols of the apparatus manufacturer.
For orientation: Calcium flux is commonly read through the fluorescence of an indicator in the cells.

Data set [1] in a line: nephelometric (kinetic) solubility determination, phosphate buffer pH 7.4. Particulars: for solubility kinetic: aqueous buffer, kinetic from dmso stock, nephelometric, Table 7; for pH 7.4 (solubility): nephelometry, Table 8, reference compounds versus inventive examples. The format is physicochemical. The procedure:
A DMSO solution of the test compound (2.5 mM; 0.5 μl) is pipetted into 200 μl of an aqueous test solution (e.g. phosphate-buffered saline, 10×, 1M, Sigma, adjusted to 10 mM, pH 7.4) in a 96-well microtiter plate, and the turbidity is measured at the resulting theoretical concentration for the test compound of 6.25 μM using a nephelometer (e.g. Nephelostar Galaxy, BMG Labtech). The concentration of the test compound in the aqueous test solution is then raised to a theoretical 12.5 μM by adding further DMSO solution (2.5 mM; 0.5 μl), and the turbidity measurement is repeated. Further additions of DMSO solutions (1 μl, 2.5 mM; 0.5 μl, 10 mM; then 9×1 μl, 10 mM resulting in theoretical concentrations of 25 μM, 50 μM, 100 μM, 150 μM, 200 μM, 250 μM, 300 μM, 350 μM, 400 μM, 450 μM and 500 μM) with turbidity measurement in between complete the measurement process.
Evaluation: The turbidity values from the nephelometer are plotted against the theoretical concentration of the test compound in the aqueous test solution. As soon as a significant turbidity is detected (e.g. 5 times above the control value of the aqueous test solution) at a theoretical concentration, the level of concentration below this is stated to be the solubility limit of the test compound in the test solution. Thus, the maximum possible measurement range emerges as values<6.25 μM, 6.25-500 μM and >500 μM.

[2] abbreviates: recombinant HEK293 cell line expressing the human MCH receptor, calcium flux after addition of agonist (MCH), read-out: IC50.

The structures appear in SMILES notation. ≈ marks a conversion by molar mass, not a printed value. Where two headings read alike, the source gives them in different places.

T1 sequence (Q99705 whole entry): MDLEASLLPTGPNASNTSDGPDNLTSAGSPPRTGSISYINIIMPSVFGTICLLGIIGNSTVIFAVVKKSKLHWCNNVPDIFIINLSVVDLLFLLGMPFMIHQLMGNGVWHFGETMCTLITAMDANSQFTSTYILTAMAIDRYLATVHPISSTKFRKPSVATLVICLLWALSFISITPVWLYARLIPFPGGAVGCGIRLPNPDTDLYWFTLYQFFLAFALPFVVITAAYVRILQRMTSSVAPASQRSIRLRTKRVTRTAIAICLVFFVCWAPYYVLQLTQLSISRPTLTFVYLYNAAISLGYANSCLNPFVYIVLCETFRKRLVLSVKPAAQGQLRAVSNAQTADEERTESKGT

In general, IC50 refers to the point on the concentration scale where inhibition reaches its midpoint. In general, solubility (kinetic) refers to solubility judged after dilution from a stock solution rather than from solid. For `COC1CCN(Cc2ccc3c(c2)CC[C@H](N(C)C(=O)c2ccc(OCC4CC4)cc2)C3)CC1` [Example 7-05], the IC50 at human MCH receptor (setting [2]) was found to be 625 nM. For the same molecule, the solubility (kinetic) in data set [1] was more than 288 µg/mL.
The like results for `CCCOc1ccc(C(=O)N(C)[C@H]2CCc3cc(CNCC4CCOCC4)ccc3C2)nc1` [Example 2-08] were, in that order, 220 nM and more than 283 µg/mL.
Turning to `CN(C(=O)c1ccc(OCC2CC2)cn1)[C@H]1CCc2cc(CNCC3CCCC3)ccc2C1` [Example 7-30], the IC50 on human MCH receptor (setting [2]) stood at 156 nM. The solubility (kinetic) in data set [1] was more than 281 µg/mL.
With `O=C(N[C@H]1CCc2cc(CN3CCCCCC3)ccc2C1)c1ccc(OCC2CC2)cc1` [Example 7-12], at human MCH receptor (setting [2]), the IC50 was determined as 94 nM. In data set [1], this molecule yielded a kinetic solubility of 3 µg/mL (≈ 6.93 µM).
On to `CC1CCN(Cc2ccc3c(c2)CC[C@H](N(C)C(=O)c2ccc(OCC4CC4)cn2)C3)CC1` [Example 7-29], for which the concentration for half-maximal inhibition (IC50) on human MCH receptor (setting [2]) was 215 nM. The molecule further gave a kinetic solubility in data set [1] of more than 281 µg/mL.
With `CN(C(=O)c1ccc(OCC2CC2)cn1)[C@H]1CCc2cc(CNCC3CCOCC3)ccc2C1` [Example 3, 5-Cyclopropylmethoxypyridine-2-carboxylic acid methyl-((S)-6-{[(tetrahydropyran-4-ylmethyl)amino]methyl}-1,2,3,4-tetrahydronaphthalen-2-yl)amide], the IC50 on human MCH receptor (setting [2]) stood at 180 nM. Also, the solubility (kinetic) in data set [1] was more than 289 µg/mL.
`CN(C(=O)c1ccc(OCC2CC2)cc1)[C@H]1CCc2cc(CNCC3(C)CCCO3)ccc2C1` (stereo partly shown) [Example 1-11]: on human MCH receptor (setting [2]), the half-maximal inhibitory concentration (IC50) was found to be 172 nM. Besides, the kinetic solubility in data set [1] was more than 288 µg/mL.
Consider `O=C(N[C@H]1CCc2cc(CN3CCCCCC3)ccc2C1)c1ccc(NC(=O)C2CCCC2)cc1` [Example 6-07], for which the IC50 on human MCH receptor is 332 nM. For the same molecule, the solubility (kinetic) in data set [1] is less than 4 µg/mL.
Take `CCC(COC)NCc1ccc2c(c1)CC[C@H](N(C)C(=O)c1ccc(OCC3CC3)cc1)C2` (stereo partly shown) [Example 7-19]: at human MCH receptor (setting [2]), the IC50 turned out to be 563 nM. This molecule yielded a solubility (kinetic) in data set [1] of more than 282 µg/mL.
Turning to `CN(C(=O)c1ccc(OCC2CC2)cc1)[C@H]1CCc2cc(CNCC3CCOC3)ccc2C1` (stereo partly shown) [Example 1-04], the IC50 on human MCH receptor (setting [2]) came to 116 nM. For the same molecule, the solubility (kinetic) in data set [1] was more than 281 µg/mL.
In the case of `CCOCCNCc1ccc2c(c1)CC[C@H](N(C)C(=O)c1ccc(OCC3CC3)cc1)C2` [Example 7-23], on human MCH receptor (setting [2]), the half-inhibitory concentration (IC50) is 108 nM. The molecule further gave a kinetic solubility in data set [1] of more than 275 µg/mL.
As to `CN(C(=O)c1ccc(OCC2CC2)cc1)[C@H]1CCc2cc(CNC3CCCCC3)ccc2C1` [Example 7-07], the 50% inhibitory concentration (IC50) at human MCH receptor (setting [2]) came to 336 nM. Besides, the solubility (kinetic) in data set [1] is more than 280 µg/mL.
In the case of `C[C@H]1CC[C@H](c2ccc3c(c2)CC[C@H](N(C)C(=O)c2ccc(OCC4CC4)cc2)C3)N1C` [Example 5-04], the IC50 at human MCH receptor (setting [2]) amounted to 134 nM. In data set [1], this molecule displayed a solubility (kinetic) of more than 273 µg/mL.
Consider `CN(C(=O)c1ccc(OCC2CC2)cn1)[C@H]1CCc2cc(C3CCCN3)ccc2C1` (stereo partly drawn) [Example 4-04, N-Methyl-N—((S)-6-pyrrolidin-2-yl-1,2,3,4-tetrahydronaphthalen-2-yl)-5-cyclopropylmethoxypyridine-2-carboxamide], for which, on human MCH receptor (setting [2]), the IC50 came out at 703 nM. In data set [1], this molecule gave a solubility (kinetic) of more than 41 µg/mL.
On to `CN1CCCC1c1ccc2c(c1)CC[C@H](N(C)C(=O)c1ccc(OCC3CC3)cn1)C2` (stereo partly shown) [Example 5-10], for which the 50% inhibitory concentration (IC50) at human MCH receptor (setting [2]) came to 646 nM. Besides, the solubility (kinetic) in data set [1] amounted to 13 µg/mL (≈ 31 µM).
For `CN(C(=O)c1ccc(OCC2CC2)cc1)[C@H]1CCc2cc(CNC[C@@H]3CCCO3)ccc2C1` [Example 1-02], the IC50 at human MCH receptor (setting [2]) turned out to be 215 nM. Moreover, the solubility (kinetic) in data set [1] is more than 281 µg/mL.
For `CCCCOc1ccc(C(=O)N[C@H]2CCc3cc(CN4CCCC4)ccc3C2)cc1` [Example 6-01], the half-inhibitory concentration (IC50) on human MCH receptor (setting [2]) was found to be 127 nM. For the same molecule, in data set [1], the kinetic solubility worked out at 13 µg/mL (≈ 32 µM) and the “pH 7.4 (solubility)” value was 0.013 mg/ml.
For the molecule `CN(C(=O)c1ccc(OCC2CC2)cc1)[C@H]1CCc2cc(CNC[C@H]3CCCO3)ccc2C1` [Example 1-03], the IC50 on human MCH receptor (setting [2]) amounted to 130 nM. Also, the kinetic solubility in data set [1] was more than 281 µg/mL.
For `CCN1CCCCC1c1ccc2c(c1)CC[C@H](N(C)C(=O)c1ccc(OCC3CC3)cc1)C2` (stereo partly shown) [Example 5-07] the same measures were 370 nM and more than 280 µg/mL.
For `CN(C(=O)c1ccc(OCC2CC2)cc1)[C@H]1CCc2cc(CNC3CCC3)ccc2C1` [Example 7-10] the same measures were 1100 nM and more than 266 µg/mL.
Consider `O=C(N[C@H]1CCc2cc(CN3C[C@@H]4CC[C@H]3C4)ccc2C1)c1ccc(OCC2CC2)cc1` [Example 7-14], for which the IC50 on human MCH receptor (setting [2]) is 92 nM. This molecule also had a solubility (kinetic) in data set [1] of more than 272 µg/mL.
Turning to `CN(C(=O)c1ccc(OCC2CC2)cc1)[C@H]1CCc2cc(CN3CCC3)ccc2C1` [Example 7-09], the IC50 on human MCH receptor (setting [2]) is 261 nM. In addition, the solubility (kinetic) in data set [1] was more than 259 µg/mL.
Consider `CC[C@H](O)COc1ccc(C(=O)N(C)[C@H]2CCc3cc(CN4CCCC4)ccc3C2)cc1` [Example 6-04], for which the IC50 on human MCH receptor (setting [2]) was 1200 nM. Further, in data set [1], the solubility (kinetic) was more than 275 µg/mL and the “pH 7.4 (solubility)” value is given as more than 0.275 mg/ml.
For `CN(C(=O)c1ccc(OCC2CC2)cn1)[C@H]1CCc2cc(CN3CC4CCC3CC4)ccc2C1` [Example 7-33], the IC50 on human MCH receptor (setting [2]) was found to be 1100 nM. This molecule also displayed a solubility (kinetic) in data set [1] of more than 287 µg/mL.
Regarding `CN(C(=O)c1ccc(C2CCCCC2)cc1)[C@H]1CCc2cc(CNCC3CCOCC3)ccc2C1` [Example 2-01, 4-Cyclohexyl-N-methyl-N—((S)-6-{[(tetrahydropyran-4-ylmethyl)amino]methyl}-1,2,3,4-tetrahydronaphthalen-2-yl)benzamide], the IC50 at human MCH receptor (setting [2]) was 1330 nM. In addition, the kinetic solubility in data set [1] was more than 294 µg/mL.
For `CC1CCC(CNCc2ccc3c(c2)CC[C@H](N(C)C(=O)c2ccc(OCC4CC4)cc2)C3)O1` (stereo partly shown) [Example 1-12] the same measures were 165 nM and more than 288 µg/mL.
Consider `CCOCCCNCc1ccc2c(c1)CC[C@H](N(C)C(=O)c1ccc(OCC3CC3)cc1)C2` [Example 7-20], for which, at human MCH receptor (setting [2]), the half-maximal inhibitory concentration (IC50) was determined as 133 nM. This molecule returned a kinetic solubility in data set [1] of more than 282 µg/mL.
Consider `COCC(C)(C)CNCc1ccc2c(c1)CC[C@H](N(C)C(=O)c1ccc(OCC3CC3)cc1)C2` [Example 7-25], for which, at human MCH receptor (setting [2]), the 50% inhibitory concentration (IC50) was 286 nM. The solubility (kinetic) in data set [1] is more than 289 µg/mL.
Consider `CCCCOc1ccc(C(=O)N[C@H]2CCc3cc(CN4CC5CCC4C5)ccc3C2)cc1` (stereo partly shown) [Example 7-01], for which the IC50 at human MCH receptor (setting [2]) stood at 245 nM. The solubility (kinetic) in data set [1] was found to be 82 µg/mL (≈ 190 µM).
On to `C[C@H]1CC[C@H](c2ccc3c(c2)CC[C@H](N(C)C(=O)c2ccc(OCC4CC4)cc2)C3)N1` [Example 4-02, 4-Cyclopropylmethoxy-N-methyl-N—[(S)-6-((2R,5S)-5-methylpyrrolidin-2-yl)-1,2,3,4-tetrahydronaphthalen-2-yl]benzamide], for which the IC50 on human MCH receptor (setting [2]) was 228 nM. The kinetic solubility in data set [1] came to 10 µg/mL (≈ 23.9 µM).
On to `CN(C(=O)c1ccc(OCC2CC2)cc1)[C@H]1CCc2cc(C3CCCCN3)ccc2C1` (stereo partly drawn) [Example 4-03, 4-Cyclopropylmethoxy-N-methyl-N—((S)-6-piperidin-2-yl-1,2,3,4-tetrahydronaphthalen-2-yl)-benzamide], for which, at human MCH receptor (setting [2]), the 50% inhibitory concentration (IC50) stood at 788 nM. Besides, the solubility (kinetic) in data set [1] came out at 10 µg/mL (≈ 23.9 µM).
Turning to `CN(C(=O)c1ccc(NC(=O)C(F)(F)F)cc1)[C@H]1CCc2cc(CNCC3CCOCC3)ccc2C1` [Example 2-02], the IC50 on human MCH receptor (setting [2]) stood at 1360 nM. Further, the solubility (kinetic) in data set [1] was more than 309 µg/mL.
`CCC1(CNCc2ccc3c(c2)CC[C@H](N(C)C(=O)c2ccc(OCC4CC4)cn2)C3)CC1` [Example 7-31]: the IC50 on human MCH receptor (setting [2]) was 190 nM. Moreover, the kinetic solubility in data set [1] was more than 281 µg/mL.
With `CC(C)CCNCc1ccc2c(c1)CC[C@H](N(C)C(=O)c1ccc(OCC3CC3)cc1)C2` [Example 7-16], the IC50 at human MCH receptor (setting [2]) was found to be 259 nM. The same molecule came in with a kinetic solubility in data set [1] of 137 µg/mL (≈ 315 µM).
